Measured values reported in ChEMBL document CHEMBL6153157, “Novel 3-Aminothieno[2,3-b]pyridine-2-carboxamides with Activity against Mycobacterium tuberculosis” (ACS Med Chem Lett, 2025).

Legend:
[1] = tested on: Mycobacterium tuberculosis; assay: Antibacterial activity against wild type Mycobacterium tuberculosis H37Rv-LP DREAM8 strain expressing codon-optimized DsRed assessed growth inhibition incubated for 5 days by fluorescence spectrophotometric assay; assay type: functional; settings: H37Rv-LP DREAM8, 120 h, time 5 day
[2] = Cytotoxicity against human HepG2 cells assessed as cell growth inhibition incubated for 3 days by CellTiter-Glo reagent-based luminescence assay; assay type: toxicity
[3] = Selectivity index, ratio of IC50 for cytotoxicity against human HepG2 cells to IC90 for antibacterial activity against wild type Mycobacterium tuberculosis H37Rv-LP DREAM8 strain expressing codon-optimized DsRed; assay type: toxicity, cell-based

## COc1ccc(-c2cc(C(F)(F)F)c3c(N)c(C(=O)NCc4ccccc4C)sc3n2)cc1
[1]
  IC90: 2.4 µM
[2]
  IC50 at 3 days: 23 µM
[3]
  selectivity ratio: 10

## Nc1c(C(=O)N2CCCC2)sc2nc(-c3ccc4c(c3)OCO4)cc(C(F)(F)F)c12
[1]
  IC90: > 100 µM
[2]
  IC50 at 3 days: > 100 µM

## COc1ccc(-c2cc(C(F)(F)F)c3c(N)c(C(=O)NC4COC4)sc3n2)cc1
[1]
  IC90: > 100 µM
[2]
  IC50 at 3 days: > 100 µM

## Cc1ccc(NC(=O)c2sc3nc(-c4ccccc4)cc(C(F)(F)F)c3c2N)cc1
[1]
  IC90: > 100 µM
[2]
  IC50 at 3 days: 24 µM

## COc1ccc(-c2cc(C(F)(F)F)c3c(N)c(C(=O)NC45CC6CC(CC(O)(C6)C4)C5)sc3n2)cc1
[1]
  IC90: 7.5 µM
[2]
  IC50 at 3 days: 19 µM
[3]
  selectivity ratio: 3

## COc1ccc(-c2cc(C(F)(F)F)c3c(N)c(C(=O)NC4CC5(C4)CN(C(=O)OC(C)(C)C)C5)sc3n2)cc1
[1]
  IC90: > 100 µM
[2]
  IC50 at 3 days: 12 µM
[3]
  selectivity ratio: < 1

## COc1ccc(-c2cc(C(F)(F)F)c3c(N)c(C(=O)Nc4cccc(C)c4C)sc3n2)cn1
[1]
  IC90: 1.4 µM
[2]
  IC50 at 3 days: 31 µM

## Nc1c(C(=O)N2CC(F)(F)C2)sc2nc(-c3ccccc3)ccc12
[1]
  IC90: > 100 µM
[2]
  IC50 at 3 days: 38 µM

## Cc1cccc(NC(=O)c2sc3nc(-c4ccc5c(c4)OCO5)cc(C(F)(F)F)c3c2N)c1C
[1]
  IC90: 0.94 µM
[2]
  IC50 at 3 days: 46 µM

## Nc1c(C(=O)N2CCOCC2)sc2nc(Cl)ccc12
[1]
  IC90: > 100 µM
[2]
  IC50 at 3 days: > 100 µM

## Nc1c(C(=O)N2CC(F)(F)C2)sc2ncccc12
[1]
  IC90: > 100 µM
[2]
  IC50 at 3 days: > 100 µM

## Nc1c(C(=O)Nc2cccnc2)sc2nc(-c3ccccc3)cc(C(F)(F)F)c12
[1]
  IC90: > 100 µM
[2]
  IC50 at 3 days: > 100 µM

## Cc1cccc(NC(=O)c2sc3nc(-c4cccs4)cc(C(F)(F)F)c3c2N)c1
[1]
  IC90: > 100 µM
[2]
  IC50 at 3 days: 32 µM

## Nc1c(C(=O)NCc2ccc(F)cc2)sc2nc(-c3ccccc3)ccc12
[1]
  IC90: > 100 µM
[2]
  IC50 at 3 days: > 100 µM

## COc1ccc(-c2cc(C(F)(F)F)c3cc(C(=O)NC(C)c4ccccc4)sc3n2)cc1 (stereo not given)
[1]
  IC90: 2.5 µM
[2]
  IC50 at 3 days: > 100 µM

## COc1ccc(-c2cc(C(F)(F)F)c3c(N)c(C(=O)N4CCCCC4)sc3n2)cc1
[1]
  IC90: > 100 µM
[2]
  IC50 at 3 days: > 100 µM

## CCNC(=O)c1sc2nc(-c3ccc(Cl)cc3Cl)cc(C(F)(F)F)c2c1N
[1]
  IC90: > 100 µM
[2]
  IC50 at 3 days: 36 µM

## CN(C)C(=O)c1sc2nc(-c3ccccc3)ccc2c1N
[1]
  IC90: > 100 µM
[2]
  IC50 at 3 days: > 100 µM

## COc1ccc(-c2cc(C(F)(F)F)c3c(N)c(C(=O)Nc4c(C)cccc4C)sc3n2)cc1
[1]
  IC90: > 100 µM
[2]
  IC50 at 3 days: > 100 µM

## Nc1c(C(=O)N2CCOCC2)sc2nc(-c3ccoc3)ccc12
[1]
  IC90: > 100 µM
[2]
  IC50 at 3 days: 50 µM

## COc1ccc(-c2cc(C(F)(F)F)c3c(N)c(C(=O)Nc4cccc(C)c4OC)sc3n2)cc1
[1]
  IC90: > 100 µM
[2]
  IC50 at 3 days: > 100 µM

## Cc1ccc(NC(=O)c2sc3nc(C)cc(C(F)(F)F)c3c2N)cc1
[1]
  IC90: > 100 µM
[2]
  IC50 at 3 days: 31 µM

## Cc1ccc(-c2cc(C(F)(F)F)c3c(N)c(C(=O)Nc4cccc(C)c4C)sc3n2)cc1
[1]
  IC90: > 100 µM
[2]
  IC50 at 3 days: 60 µM

## COc1ccc(-c2cc(C(F)(F)F)c3c(N)c(C(=O)NCCSC)sc3n2)cc1
[1]
  IC90: 41 µM
[2]
  IC50 at 3 days: > 100 µM

## Nc1c(C(=O)NCc2ccccc2)sc2nc(-c3ccccc3)ccc12
[1]
  IC90: > 100 µM
[2]
  IC50 at 3 days: > 100 µM

## COc1ccc(-c2ccc3c(N)c(C(=O)N4CCOCC4)sc3n2)cc1OC
[1]
  IC90: > 100 µM
[2]
  IC50 at 3 days: > 100 µM

## Cc1cccc(CNC(=O)c2sc3nc(-c4ccc5c(c4)OCO5)cc(C(F)(F)F)c3c2N)c1C
[1]
  IC90: > 100 µM
[2]
  IC50 at 3 days: 44 µM

## COc1ccc(-c2cc(C(F)(F)F)c3c(N)c(C(=O)Nc4ccccc4)sc3n2)cc1
[1]
  IC90: > 100 µM
[2]
  IC50 at 3 days: > 100 µM

## COc1ccc(-c2cc(C(F)(F)F)c3c(N)c(C(=O)Nc4ccc(C)cc4C)sc3n2)cc1
[1]
  IC90: > 100 µM
[2]
  IC50 at 3 days: > 100 µM

## Cc1cccc(NC(=O)c2sc3nc(-c4cccs4)cc(C(F)(F)F)c3c2N)c1C
[1]
  IC90: > 100 µM
[2]
  IC50 at 3 days: > 100 µM

## COc1ccc(-c2cc(C(F)(F)F)c3c(N)c(C(=O)Nc4cccc(C)c4F)sc3n2)cc1
[1]
  IC90: > 100 µM
[2]
  IC50 at 3 days: 42 µM

## Nc1c(C(=O)NCc2ccccc2)sc2ncccc12
[1]
  IC90: > 100 µM
[2]
  IC50 at 3 days: > 100 µM

## COc1ccc(-c2ccc3c(N)c(C(=O)N4CCOCC4)sc3n2)cc1
[1]
  IC90: > 100 µM
[2]
  IC50 at 3 days: 63 µM

## Nc1c(C(=O)NC23CC4CC(CC(C4)C2)C3)sc2nc(-c3ccc4c(c3)OCO4)cc(C(F)(F)F)c12
[1]
  IC90: 0.68 µM
[2]
  IC50 at 3 days: 81 µM

## Cc1cccc(NC(=O)c2sc3nc(-c4ccccc4)cc(C(F)(F)F)c3c2N)c1C
[1]
  IC90: > 100 µM
[2]
  IC50 at 3 days: > 100 µM

## COc1ccc(-c2ccc3c(N)c(C(=O)Nc4cccc(C)c4C)sc3n2)cc1
[1]
  IC90: > 100 µM
[2]
  IC50 at 3 days: > 100 µM

## COc1ccc(-c2cc(C(F)(F)F)c3c(N)c(C(=O)NC4CC4)sc3n2)cc1
[1]
  IC90: > 100 µM
[2]
  IC50 at 3 days: > 100 µM

## COc1ccc(-c2cc(C)c3c(N)c(C(=O)Nc4cccc(C)c4C)sc3n2)cc1
[1]
  IC90: > 100 µM
[2]
  IC50 at 3 days: 27 µM

## Nc1c(C(=O)N2CCOCC2)sc2nc(-c3ccc(F)cc3)ccc12
[1]
  IC90: > 100 µM
[2]
  IC50 at 3 days: 41 µM

## Nc1c(C(=O)Nc2ccccc2C(F)(F)F)sc2nc(-c3ccccc3)cc(C(F)(F)F)c12
[1]
  IC90: > 100 µM
[2]
  IC50 at 3 days: 97 µM

## COc1ccc(-c2cc(C(F)(F)F)c3c(N)c(C(=O)Nc4cccc(C)c4C)sc3n2)cc1
[1]
  IC90: 1.1 µM
[2]
  IC50 at 3 days: 44 µM

## Nc1c(C(=O)N2CCOCC2)sc2nc(-c3ccccc3)ccc12
[1]
  IC90: > 100 µM
[2]
  IC50 at 3 days: 56 µM

## COc1ccc(-c2cc(C(F)(F)F)c3c(N)c(C(=O)N4CCCC4)sc3n2)cc1
[1]
  IC90: > 50 µM
[2]
  IC50 at 3 days: > 50 µM

## Nc1c(C(=O)N2CCOCC2)sc2ncccc12
[1]
  IC90: > 100 µM
[2]
  IC50 at 3 days: > 100 µM

## Nc1c(C(=O)Nc2ccccc2F)sc2nc(-c3ccccc3)cc(C(F)(F)F)c12
[1]
  IC90: > 100 µM
[2]
  IC50 at 3 days: > 100 µM

## Nc1c(C(=O)NCc2ccc(F)cc2)sc2ncccc12
[1]
  IC90: > 100 µM
[2]
  IC50 at 3 days: > 100 µM

## COC1CN(C(=O)c2sc3nc(-c4ccccc4)ccc3c2N)C1
[1]
  IC90: > 100 µM
[2]
  IC50 at 3 days: 38 µM

## CCN(CC)C(=O)c1sc2ncccc2c1N
[1]
  IC90: > 100 µM
[2]
  IC50 at 3 days: > 100 µM

## COc1cccc(-c2cc(C(F)(F)F)c3c(N)c(C(=O)Nc4cccc(C)c4C)sc3n2)c1
[1]
  IC90: > 100 µM
[2]
  IC50 at 3 days: 52 µM

## Cc1cccc(NC(=O)c2sc3nc(-c4ccco4)cc(C(F)(F)F)c3c2N)c1C
[1]
  IC90: > 100 µM
[2]
  IC50 at 3 days: > 100 µM

## COc1ccc(-c2cc(C(F)(F)F)c3c(N)c(C(=O)NC4CCC(c5ccc(C(C)(C)C)cc5)CC4)sc3n2)cc1 (stereo not given)
[1]
  IC90: > 10 µM
[2]
  IC50 at 3 days: > 10 µM

## COc1ccc(-c2cc(C(F)(F)F)c3c(N)c(C(=O)Nc4cccc(C)c4C)sc3n2)cc1OC
[1]
  IC90: > 100 µM
[2]
  IC50 at 3 days: 42 µM

## Nc1c(C(=O)N2CCOCC2)sc2nc(-c3cccnc3)ccc12
[1]
  IC90: > 100 µM
[2]
  IC50 at 3 days: > 100 µM

## CN(C)C(=O)c1sc2ncccc2c1N
[1]
  IC90: > 100 µM
[2]
  IC50 at 3 days: > 100 µM

## COC1CN(C(=O)c2sc3ncccc3c2N)C1
[1]
  IC90: > 100 µM
[2]
  IC50 at 3 days: > 100 µM

## COCCNC(=O)c1sc2nc(-c3ccc(OC)cc3)cc(C(F)(F)F)c2c1N
[1]
  IC90: > 100 µM
[2]
  IC50 at 3 days: > 100 µM
